Activity calls are given as the source filed them. Some results are limits rather than exact numbers.

A short description of assay [1]: intracellular Trypanosoma cruzi inhibitors in host cells – cell-based, plate reader, cherry-pick samples, set 3, dose response (AID 651818).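 Also: compounds incubated with infected cells for about four days.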 The class given is functional.
In assay [2] the target is T1, Short transient receptor potential channel 4 (Mus musculus, UniProt Q9QUQ5).
T1 sequence (Q9QUQ5 whole entry): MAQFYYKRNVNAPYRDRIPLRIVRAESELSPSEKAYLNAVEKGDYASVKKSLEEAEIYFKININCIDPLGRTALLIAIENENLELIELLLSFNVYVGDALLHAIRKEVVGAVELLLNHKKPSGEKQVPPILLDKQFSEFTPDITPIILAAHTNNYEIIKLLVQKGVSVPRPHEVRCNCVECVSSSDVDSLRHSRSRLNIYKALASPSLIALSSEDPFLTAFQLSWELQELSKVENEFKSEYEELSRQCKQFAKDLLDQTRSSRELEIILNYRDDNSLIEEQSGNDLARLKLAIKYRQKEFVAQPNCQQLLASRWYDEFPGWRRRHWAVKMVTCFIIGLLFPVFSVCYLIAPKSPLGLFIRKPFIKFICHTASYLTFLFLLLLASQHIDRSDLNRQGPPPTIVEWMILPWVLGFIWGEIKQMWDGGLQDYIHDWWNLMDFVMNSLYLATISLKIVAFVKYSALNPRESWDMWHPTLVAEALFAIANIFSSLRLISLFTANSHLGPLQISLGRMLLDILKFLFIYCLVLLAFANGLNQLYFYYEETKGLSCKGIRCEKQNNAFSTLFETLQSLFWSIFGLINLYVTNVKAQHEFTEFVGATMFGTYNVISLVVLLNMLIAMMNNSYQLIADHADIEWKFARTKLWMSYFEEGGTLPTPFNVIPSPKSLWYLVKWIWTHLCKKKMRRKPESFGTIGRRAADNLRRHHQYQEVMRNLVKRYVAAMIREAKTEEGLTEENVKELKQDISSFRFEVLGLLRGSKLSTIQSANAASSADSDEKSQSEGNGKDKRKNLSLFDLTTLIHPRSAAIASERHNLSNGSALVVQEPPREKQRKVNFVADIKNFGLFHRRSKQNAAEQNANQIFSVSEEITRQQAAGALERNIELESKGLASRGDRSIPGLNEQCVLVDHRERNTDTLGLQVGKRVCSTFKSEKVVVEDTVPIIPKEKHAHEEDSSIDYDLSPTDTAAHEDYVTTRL
Description: calcium entry via TRPC4 opening agents – cell-based, HEK293 TRPC4/mu-opioid, Fluo-4 calcium, dose response (AID 434937). It is filed as functional.

A short description of assay [3]: blockers of HIV-1 envelope-mediated cell-cell fusion – cherry-pick, dose response (AID 652057). The class given is functional, cell-based.
The nature of assay [4]: HIV-1 AD8 envelope cell-cell fusion blockers – cherry-pick, dose response (AID 652062).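 Also: luciferase signal from cell-cell fusion driven by HIV-1 clade B AD8 Env; potency is for inhibitors of fusion seen as a drop in luminescence.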 It is filed as functional, cell-based.
Assay [5] can be described thus: cells. The class given is functional, cell-based.
The nature of assay [6]: cells. It is filed as functional, cell-based. This is another data set of the same source.
Assay [7] addresses T2, High affinity choline transporter 1 (Homo sapiens, UniProt Q9GZV3).
T2 sequence (Q9GZV3 whole entry): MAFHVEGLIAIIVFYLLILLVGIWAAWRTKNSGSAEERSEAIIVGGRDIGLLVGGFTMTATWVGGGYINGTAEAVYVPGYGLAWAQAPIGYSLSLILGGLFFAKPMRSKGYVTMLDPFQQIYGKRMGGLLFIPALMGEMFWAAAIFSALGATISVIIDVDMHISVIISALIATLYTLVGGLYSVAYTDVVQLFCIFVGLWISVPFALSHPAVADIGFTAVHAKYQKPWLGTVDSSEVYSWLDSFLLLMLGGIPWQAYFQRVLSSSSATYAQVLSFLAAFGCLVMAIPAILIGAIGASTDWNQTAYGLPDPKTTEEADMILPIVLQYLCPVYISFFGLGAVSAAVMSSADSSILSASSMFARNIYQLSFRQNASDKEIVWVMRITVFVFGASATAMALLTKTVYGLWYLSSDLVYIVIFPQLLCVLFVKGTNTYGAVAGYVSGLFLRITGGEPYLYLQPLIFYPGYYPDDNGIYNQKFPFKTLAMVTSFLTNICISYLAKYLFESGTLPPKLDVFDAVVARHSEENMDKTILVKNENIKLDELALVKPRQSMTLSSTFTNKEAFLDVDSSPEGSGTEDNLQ
As to the kind of experiment: human choline transporter blockers, potency – cell-based, 5-point CRC, membrane potential dye, dose response (AID 504840). It is filed as functional.

Assay [8] can be described thus: DRD fibroblast viability loss – cell-based, non-viral oncogenic, luminescence, dose response (AID 1934). The class given is functional. The note with it: Homo sapiens.
The test system of assay [9] is BJ. Description: growth inhibition of engineered Ras-driven BJ cells – cell-based, alamar blue fluorescence, cherrypicked samples, dose response (AID 2631).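 Also: confirmatory dose-response assay in RAS-dependent BJ fibroblasts engineered with TERT, LT and ST, with cytotoxicity read by fluorescence.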 The class given is functional. The conditions noted are these: Homo sapiens. On the technique in general: The colour change of resazurin is a common sign of viable cells or microbes.
Assay [10] concerns BJ. As to the kind of experiment: cells. The class given is functional, cell-based. The conditions noted are these: Homo sapiens.
Assay [11] deals with BJ. Description: BJ-TERT fibroblast viability loss – cell-based, RAS-independent, luminescence, dose response (AID 1933). The class given is functional. The conditions noted are these: Homo sapiens.
In assay [12] the test system is BJ. Description: BJ-TERT-LT-ST fibroblast viability loss – cell-based, RAS-independent, luminescence, dose response (AID 1935).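 Also: BJ fibroblasts immortalized with TERT plus LT and ST oncogenes.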 The class given is functional. The note with it: Homo sapiens.
The nature of assay [13]: Luminescence Cell-Based Dose Retest to Confirm Inhibitors of Cancer Stem Cells. [Related pubchem assays (depositor defined):AID2717, AID2721]. The note with it: Homo sapiens. It is filed as functional.
Assay [14] deals with Streptococcus sp. 'group A'. Description: Streptococcus pyogenes SK(-)GAS viability under kanamycin – luminescence, BacTiterGlo, confirmation, counter-screen for streptokinase expression inhibitor project, dose response (AID 1900). It is filed as functional, organism-based.
For a further assay, the system named is Streptococcus. As to the kind of experiment: GAS UMAA2166 growth inhibition – luminescence, BacTiterGlo, counter-screen for streptokinase expression inhibitor project, dose response (AID 1915).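 Also: potency for reduction of bacterial viability or growth.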 It is filed as functional, organism-based. In general terms: Counterscreens check selectivity or assay interference.
Assay [15] is described as follows: reduction of Shn3 3'UTR-driven luciferase in osteoblasts – cell-based, Clone20 osteoblasts, firefly luciferase, cherry-picked, dose response (AID 624132).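 Also: firefly luciferase luminescence from reporter carrying the Shn3 3'UTR in osteoblasts.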 The class given is functional.
Assay [16] is described as follows: non-specific 3'UTR reporter inhibition in Clone20-Shn3RL – cell-based, Renilla luciferase, cherry-picked, counter-screen for Shn3 inhibitor project, dose response (AID 624133). It is filed as functional.

What is called AC50 is the midpoint of the concentration-response curve, whichever way the signal moves. For the molecule `C[C@H](CO)N1C[C@H](C)[C@H](CN(C)Cc2ccc(-c3ccccc3)cc2)Oc2ccc(NC(=O)C3CCCCC3)cc2CC1=O`, in [1], the AC50 was 2.26 µM (active).
In general, EC50 refers to the concentration that produces a half-maximal response. As to `O=[N+]([O-])c1cc(C(F)(F)F)ccc1N1CCCNCC1`, the EC50 in assay [2] was 841 nM (active).
Take `Clc1ccc(-c2noc(CSc3nnc(-c4ccncc4)n3-c3ccccc3)n2)cc1`: the concentration at half-maximal activity (AC50) in assay [3] was 25 µM (active); in assay [4] it was 4.51 µM (active).
What is called IC50 is the concentration at which inhibition is half-maximal. As for `NN=C(S)NCCc1ccccc1`, the IC50 in “cells [5]” was > 29.9 µM (inactive). For the same molecule, in “cells [6]”, the EC50 is > 29.9 µM (inactive).
Turning to `O=C(Nc1nc2ccc(S(=O)(=O)N3CCCCC3)cc2s1)c1cccnc1`, in assay [7], the IC50 was 13.2 µM (active).
For the molecule `O=C1OC(c2ccc([N+](=O)[O-])cc2)=N/C1=C/N1CC2CC(C1)c1cccc(=O)n1C2` (configuration not stated), the concentration giving a half-maximal response (EC50) in assay [2] was 10600 nM (active).
Turning to `CN1CCN(S(=O)(=O)c2cccc(C(=O)Nc3ccc(Br)cc3Br)c2)CC1`, in assay [7], the IC50 is 12.6 µM (active).
Turning to `CN(CC(=O)Nc1ccccc1Cl)C(=O)CCNC(=O)Nc1ccccc1`, the IC50 in the assay “cells [5]” is > 29.9 µM (inactive). Besides, the EC50 in the assay “cells [6]” was > 29.9 µM (inactive).
As to `O=C1NC(=S)S/C1=C\c1coc2ccccc2c1=O`, the half-inhibitory concentration (IC50) in assay [7] was 14.5 µM (active).
For `Cc1ccc(S(=O)(=O)Nc2ccc3c(c2)C(=O)N([C@H](C)CO)C[C@H](C)[C@H](CN(C)S(=O)(=O)c2ccccc2)O3)cc1`, the AC50 in assay [1] was 13.3 µM (active).
On the same count and under the same terms, for `COc1ccc(CN(C)C[C@H]2Oc3ccc(NS(=O)(=O)c4ccc(Cl)cc4)cc3CC(=O)N([C@H](C)CO)C[C@H]2C)cc1` the value was 4.65 µM (active).
As to `COc1ccc(-c2nc3ccc(C(=O)NCCCN4CCOCC4)cc3nc2-c2ccc(OC)cc2)cc1`, the 50% inhibitory concentration (IC50) in assay [7] is 13.2 µM (active).
On to `NC(=O)CC(NC(=O)Cc1ccc(Cl)cc1)c1ccc(NCCc2ccccc2F)c([N+](=O)[O-])c1` (configuration not stated), for which the IC50 in the assay “cells [5]” is > 29.9 µM (inactive). Moreover, the EC50 in the assay “cells [6]” was > 29.9 µM (inactive).
With `COc1ccccc1/C=C1\SC(=S)N(CCC(=O)NCCCn2ccnc2)C1=O`, the 50% effective concentration (EC50) in assay [8] is > 150 µM (not active); in the assay on BJ [9], > 133 µM (inactive); in the assay on BJ [10], > 150 µM (not active); with BJ [11] it was > 150 µM (not active); in the assay on BJ [12] it was > 75 µM (inconclusive). For the same molecule, the AC50 in assay [13] was 6.05 µM (active).
On to `C[C@@H]1CN([C@@H](C)CO)C(=O)Cc2cc(NC(=O)C3CC3)ccc2O[C@@H]1CN(C)Cc1ccc(C(=O)Nc2ccccc2N)cc1`, for which the AC50 in assay [1] is 3.26 µM (active).
With `O=C(CCN1C(=O)/C(=C\c2cccc(Br)c2)SC1=S)NCCCN1CCOCC1`, the concentration for a half-maximal effect (EC50) in assay [8] was 4.75 µM (active); in the assay with BJ [9], > 66.7 µM (inactive); in the assay on BJ [10] it was 93.6 µM (inconclusive); in the assay on BJ [11] it was 1.4 µM (inconclusive); in the assay with BJ [12] it was > 150 µM (not active).
As for `C[C@@H]1CN([C@H](C)CO)C(=O)Cc2cc(NC(=O)Nc3ccc(C(F)(F)F)cc3)ccc2O[C@H]1CN(C)CC1CCCCC1`, the AC50 in assay [1] is 3.27 µM (active).
Same read-out and setting: next, `C[C@H](CO)N1C[C@H](C)[C@H](CN(C)S(=O)(=O)c2ccc(Cl)cc2)Oc2ccc(NC(=O)Nc3ccc(C(F)(F)F)cc3)cc2CC1=O`: 3.91 µM (active).
With `CN(C)C(CNC(=O)Cc1c(Cl)cccc1Cl)c1ccccc1` (configuration not stated), the EC50 in assay [2] was 376 nM (active).
In the case of `COc1cccc(N2C(N)=NC(N)=NC2(C)C)c1`, the EC50 in assay [14] is 355 nM (active); in [8], 12.6 µM (active); in the assay on BJ [9], > 133 µM (inactive); with BJ [10], 5.99 µM (inconclusive); in the assay with Streptococcus, 1.42 µM (active); with BJ [11] it was > 150 µM (not active). Moreover, in the assay on BJ [12], the EC50 is > 150 µM (not active).
On to `Cc1cc(C)n2nc(SCc3cccc(S(=O)(=O)N(C)C)c3)nc2n1`, for which the figures for the concentration at half-maximal activity (AC50) in assay [15] and in assay [16] were 14 µM (active) and 8.55 µM (active), respectively.
Take `CN1CCN(C(=O)c2cccn(Cc3c(Cl)cccc3Cl)c2=O)CC1`: the EC50 in assay [2] was 668 nM (active).

Source of the values: ChEMBL document CHEMBL1201862, “PubChem BioAssay data set” (2004).
